Converted amounts (≈) assume the structure as drawn.
Tests used:
Test in all cases: antibacterial activity, MIC by standard serial dilution method
Assay type in all cases: cell-based
[1] = system: Enterobacter hirae ATCC8043
Excerpt: (§1) Antibacterial activity of Compounds Nos. 1, 3, 5, 7, 9, 11, 13, 15, 17, 19, 21, 23, 25, 27, 29, 31, 33, 35 and 37 indentified hereinbefore which are the particular examples of the new cephalosporin derivative of general formula (I) according to this invention and which are in the form of the free carboxylic acid was estimated by determining the minimum inhibitory concentrations (MIC., μg/ml) of these compounds against a variety of bacteria according to a standard serial dilution method.

[2] = system: Escherichia coli NIHJ JC-2; details: NIHJJC2
Excerpt: as §1

Escherichia coli 255 = system: Escherichia coli 255
Excerpt: as §1

Proteus vulgaris GN76 = system: Proteus vulgaris GN76
Excerpt: as §1

[3] = system: Enterobacter cloacae GN7471
Excerpt: as §1

[4] = system: Entrobacter faecalis W-73
Excerpt: as §1

[5] = system: Marganella morganii 1510/S-1
Excerpt: as §1

[6] = system: Escherichia coli W3630 RGN823; details: W3630RGN823
Excerpt: as §1

Escherichia coli 255/S-1 = details: 255/S1
Excerpt: as §1

[7] = system: Pseudomonas aeruginosa GN10362
Excerpt: as §1

Escherichia coli GN206 = system: Escherichia coli GN206
Excerpt: as §1

[8] = system: Klebsiella pneumoniae PCI602
Excerpt: as §1

Marganella morganii 1510 = system: Marganella morganii 1510
Excerpt: as §1

[9] = system: Citrobacter freundii GN346
Excerpt: as §1

[10] = system: Enterobacter cloacae G-0008; details: G0008
Excerpt: as §1

[11] = system: Staphylococcus aureus 209P JC-1
Excerpt: as §1

[12] = system: Serratia marcescens No. 1
Excerpt: as §1

[13] = system: Staphylococcus epidermidis ATCC14990
Excerpt: as §1

[14] = system: Proteus vulgaris GN76/C-1
Excerpt: as §1

[15] = system: Serratia marcescens GN10857
Excerpt: as §1

[16] = system: Citrobacter freundii GN346/16
Excerpt: as §1

[17] = system: Klebsiella pneumoniae GN69
Excerpt: as §1

SMILES | MIC [1] [µg/mL] | MIC [2] [µg/mL] | MIC (Escherichia coli 255) [µg/mL] | MIC (Proteus vulgaris GN76) [µg/mL] | MIC [3] [µg/mL] | MIC [4] [µg/mL] | MIC [5] [µg/mL] | MIC [6] [µg/mL] | MIC (Escherichia coli 255/S-1) [µg/mL] | MIC [7] [µg/mL] | MIC (Escherichia coli GN206) [µg/mL] | MIC [8] [µg/mL] | MIC (Marganella morganii 1510) [µg/mL] | MIC [9] [µg/mL] | MIC [10] [µg/mL] | MIC [11] [µg/mL] | MIC [12] [µg/mL] | MIC [13] [µg/mL] | MIC [14] [µg/mL] | MIC [15] [µg/mL] | other results
CO/N=C(\C(=O)NC1C(=O)N2C(C(=O)O)=C(SCC3CCCO3)CS[C@H]12)c1csc(N)n1 (some centres unmarked) [Compound No. 1, 7-[(Z)-2-(2-aminothiazol-4-yl)-2-methoxyiminoacetamido]-3-tetrahydrofurfurylthio-3-cephem-4-carboxylic acid] | 12.5 (≈ 25 µM) | 1.56 (≈ 3.12 µM) | 25 (≈ 50 µM) | 0.2 (≈ 0.4 µM) | 50 (≈ 100 µM) | 100 (≈ 200 µM) | 0.39 (≈ 0.781 µM) | 1.56 (≈ 3.12 µM) | 0.78 (≈ 1.56 µM) | > 100 | 6.25 (≈ 12.5 µM) | 0.78 (≈ 1.56 µM) | 50 (≈ 100 µM) | > 100 | 1.56 (≈ 3.12 µM) | 0.2 (≈ 0.4 µM) | 0.78 (≈ 1.56 µM) | 0.78 (≈ 1.56 µM) | 3.13 (≈ 6.27 µM) | 100 (≈ 200 µM) | MIC [16]: 3.13 µg/mL (≈ 6.27 µM); MIC [17]: 0.39 µg/mL (≈ 0.781 µM)
CO/N=C(\C(=O)NC1C(=O)N2C(C(=O)O)=C(SC3CCOC3)CS[C@H]12)c1csc(N)n1 (some centres unmarked) [Compound No. 3, 7-[(Z)-2-(2-aminothiazol-4-yl)-2-methoxyiminoacetamido]-3-(tetrahydrofuran-3-yl)thio-3-cephem-4-carboxylic acid] | 12.5 (≈ 25.7 µM) | 0.39 (≈ 0.803 µM) | 50 (≈ 103 µM) | 0.1 (≈ 0.206 µM) | 50 (≈ 103 µM) | > 100 | 0.2 (≈ 0.412 µM) | 0.78 (≈ 1.61 µM) | 0.39 (≈ 0.803 µM) | > 100 | 12.5 (≈ 25.7 µM) | 0.2 (≈ 0.412 µM) | 25 (≈ 51.5 µM) | > 100 | 12.5 (≈ 25.7 µM) | 0.2 (≈ 0.412 µM) | 12.5 (≈ 25.7 µM) | 0.39 (≈ 0.803 µM) | 1.56 (≈ 3.21 µM) | 100 (≈ 206 µM) | MIC [16]: 3.13 µg/mL (≈ 6.45 µM); MIC [17]: 0.2 µg/mL (≈ 0.412 µM)
CO/N=C(\C(=O)NC1C(=O)N2C(C(=O)O)=C(SCC3COC(C)(C)O3)CS[C@H]12)c1csc(N)n1 (some centres unmarked) [Compound No. 5, 7-[(Z)-2-(2-aminothiazol-4-yl)-2-methoxyiminoacetamido]-3-(2,2-dimethyl-1,3-dioxolan-4-yl)methylthio-3-cephem-4-carboxylic acid] | 25 (≈ 47.2 µM) | 1.56 (≈ 2.95 µM) | 100 (≈ 189 µM) | 0.39 (≈ 0.736 µM) | 50 (≈ 94.4 µM) | 50 (≈ 94.4 µM) | 0.78 (≈ 1.47 µM) | 1.56 (≈ 2.95 µM) | 3.13 (≈ 5.91 µM) | > 100 | 12.5 (≈ 23.6 µM) | 1.56 (≈ 2.95 µM) | 100 (≈ 189 µM) | > 100 | 3.13 (≈ 5.91 µM) | 1.56 (≈ 2.95 µM) | 1.56 (≈ 2.95 µM) | 1.56 (≈ 2.95 µM) | 1.56 (≈ 2.95 µM) | 50 (≈ 94.4 µM) | MIC [16]: 6.25 µg/mL (≈ 11.8 µM); MIC [17]: 0.78 µg/mL (≈ 1.47 µM)
CO/N=C(\C(=O)NC1C(=O)N2C(C(=O)O)=C(SC3CCOCC3)CS[C@H]12)c1csc(N)n1 (some centres unmarked) [Compound No. 7, 7-[(Z)-2-(2-aminothiazol-4-yl)-2-methoxyiminoacetamido]-3-(tetrahydropyran-4-yl)thio-3-cephem-4-carboxylic acid] | 6.25 (≈ 12.5 µM) | 0.78 (≈ 1.56 µM) | 50 (≈ 100 µM) | 0.2 (≈ 0.4 µM) | 50 (≈ 100 µM) | > 100 | 0.2 (≈ 0.4 µM) | 1.56 (≈ 3.12 µM) | 0.78 (≈ 1.56 µM) | > 100 | 12.5 (≈ 25 µM) | 0.39 (≈ 0.781 µM) | 50 (≈ 100 µM) | > 100 | 0.78 (≈ 1.56 µM) | 0.78 (≈ 1.56 µM) | 0.78 (≈ 1.56 µM) | 0.39 (≈ 0.781 µM) | 0.78 (≈ 1.56 µM) | 100 (≈ 200 µM) | MIC [16]: 6.25 µg/mL (≈ 12.5 µM); MIC [17]: 0.78 µg/mL (≈ 1.56 µM)
CO/N=C(\C(=O)NC1C(=O)N2C(C(=O)O)=C(SCC3CCOC(C)(C)O3)CS[C@H]12)c1csc(N)n1 (some centres unmarked) [Compound No. 9, 7-[(Z)-2-(2-aminothiazol-4-yl)-2-methoxyiminoacetamido]-3-(2,2-dimethyl-1,3-dioxan-4-yl)methylthio-3-cephem-4-carboxylic acid] | 25 (≈ 46 µM) | 3.13 (≈ 5.76 µM) | 100 (≈ 184 µM) | 0.78 (≈ 1.43 µM) | 50 (≈ 92 µM) | 100 (≈ 184 µM) | 1.56 (≈ 2.87 µM) | 1.56 (≈ 2.87 µM) | 6.25 (≈ 11.5 µM) | > 100 | 12.5 (≈ 23 µM) | 3.13 (≈ 5.76 µM) | 100 (≈ 184 µM) | > 100 | 3.13 (≈ 5.76 µM) | 1.56 (≈ 2.87 µM) | 3.13 (≈ 5.76 µM) | 1.56 (≈ 2.87 µM) | 3.13 (≈ 5.76 µM) | 50 (≈ 92 µM) | MIC [16]: 6.25 µg/mL (≈ 11.5 µM); MIC [17]: 1.56 µg/mL (≈ 2.87 µM)

— patent US5332731A, “Cephalosporin derivatives” (Meiji Seika Kaisha, Ltd., priority 1989, dated 1994)
